How the values were obtained:
[1] = biological target: T1, hTREX1 (Homo sapiens, UniProt Q9NSU2); test: hTREX1 HCT116 Cell Assay (HCT116 dual cells, Lucia luciferase reporter of Type I interferon induction); format: cell-based; settings: TREX1i 4 h before pBR322/BstNI transfection, read after 48 h
T1 construct: host or cells: HCT116 dual cells
T1 sequence (Q9NSU2 1-314): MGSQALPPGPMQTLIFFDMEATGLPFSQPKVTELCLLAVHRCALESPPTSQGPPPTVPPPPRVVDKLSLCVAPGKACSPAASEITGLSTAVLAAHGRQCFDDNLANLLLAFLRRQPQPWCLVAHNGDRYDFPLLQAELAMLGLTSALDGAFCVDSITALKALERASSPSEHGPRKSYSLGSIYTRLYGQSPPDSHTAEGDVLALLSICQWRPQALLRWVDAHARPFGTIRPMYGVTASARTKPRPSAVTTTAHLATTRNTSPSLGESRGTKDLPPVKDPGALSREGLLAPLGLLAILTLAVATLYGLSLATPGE
In short: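 Type I interferon induction read as secreted Lucia luciferase 48 h after transfecting pBR322/BstNI digest (1 ug/mL, 100 ng/well) into HCT116 dual reporter cells. Compound added 4 h before transfection at up to 0.1% DMSO; cells in DMEM/10% FBS/25 mM HEPES at 37 °C.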

[2] = biological target: T2, full length mouse TREX1 (Mus musculus, UniProt Q91XB0); test: mTREX1 Biochemical Assay (fluorescence, dsDNA substrate degradation); settings: biochemical, read-out: mTREX1 IC50
T2 construct: N-terminally His-Tev tagged full length mouse TREX1; made in house; host or cells: E. coli
T2 sequence (Q91XB0 1-314): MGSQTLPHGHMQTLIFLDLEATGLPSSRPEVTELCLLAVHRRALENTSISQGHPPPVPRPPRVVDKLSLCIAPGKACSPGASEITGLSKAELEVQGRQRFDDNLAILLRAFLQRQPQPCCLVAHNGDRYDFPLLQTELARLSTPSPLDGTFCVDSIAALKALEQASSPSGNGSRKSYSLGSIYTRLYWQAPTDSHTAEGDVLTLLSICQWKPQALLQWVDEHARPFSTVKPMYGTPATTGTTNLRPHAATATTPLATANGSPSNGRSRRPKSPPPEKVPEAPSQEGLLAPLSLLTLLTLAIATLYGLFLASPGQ
In short: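 Reaction run 18 h at 25° C. with 60 nM TEX615/quencher-labelled dsDNA and 6 pM mouse TREX1 in Tris buffer (pH 7.4, 5 mM MgCl2, 1.0% DMSO), enzyme having sat 4 h with compound across 10 concentrations. EDTA quench; substrate degradation measured as fluorescence increase.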

[3] = biological target: T3, full length human TREX1 (Homo sapiens, UniProt Q9NSU2); test: hTREX1 Biochemical Assay (fluorescence, dsDNA substrate degradation); settings: biochemical, read-out: hTREX1 IC50
T3 construct: N-terminally His-Tev tagged full length human TREX1; made in house; host or cells: E. coli
T3 sequence (Q9NSU2 1-314): T1 sequence (Q9NSU2 1-314)
In short: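 Fluorescence rises as enzyme degrades a quenched TEX615-labelled dsDNA substrate (60 nM) in 50 mM Tris, 150 mM NaCl, 5 mM MgCl2, pH 7.4. Full-length His-Tev-tagged human TREX1, 4 pM, sits with compound 4 hours at 25° C before substrate; reaction 18 hours, stopped with EDTA.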

[4] = biological target: T4, human TREX2 (residues M44-A279) (Homo sapiens, UniProt Q9BQ50); test: hTREX2 Biochemical Assay (fluorescence, dsDNA substrate degradation); settings: biochemical selectivity for hTREX1 vs hTREX2
T4 construct: human TREX2 (residues M44-A279, expressed in E. coli); made in house; host or cells: E. coli
T4 sequence (Q9BQ50 44-279 isoform Q9BQ50-1): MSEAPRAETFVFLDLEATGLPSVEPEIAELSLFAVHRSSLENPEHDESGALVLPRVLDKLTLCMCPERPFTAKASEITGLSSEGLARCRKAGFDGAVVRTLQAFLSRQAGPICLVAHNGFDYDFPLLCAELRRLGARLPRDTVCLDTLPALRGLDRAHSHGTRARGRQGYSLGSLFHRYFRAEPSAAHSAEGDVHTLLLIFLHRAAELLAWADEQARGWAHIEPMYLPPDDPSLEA
In short: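 Fluorogenic dsDNA degradation read at 615 nm (570 nm excitation) after EDTA quench. Final 60 nM substrate, 50 pM His-Tev-tagged enzyme, 5 mM MgCl2, pH 7.4, 1.0% DMSO; 4 h compound–enzyme preincubation then 18 h reaction, both 25 °C; 10-point titration.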

Row | Compound | IC50 [1] | IC50 [2] | IC50 [3] | hTREX1 vs hTREX2 selectivity [4]
1 | CC(c1nc(C(=O)Nc2cnoc2)c(O)c(=O)n1C)C(c1cnn(C(C)C)c1)c1ccccc1C#N (single isomer, unassigned) [Example 105 D2E1] | > 100 nM | > 10 nM | 1 to 10 nM | A (A = <25 fold selective for hTREX1)
2 | CC(c1nc(C(=O)Nc2cnoc2)c(O)c(=O)n1C)C(c1cnn(C2COC2)c1)c1ccccc1C#N (single isomer, unassigned) [Example 106 D1E1] | 10 to 100 nM | 1 to 10 nM | < 1 nM | B (B = 25 to 50-fold selective for hTREX1)
3 | COCCn1ncc(C(c2cc(F)ccc2Cl)C(C)c2nc(C(=O)Nc3cnoc3)c(O)c(=O)n2C)c1C (single isomer, unassigned) [Example 108 D1E1] | > 100 nM | > 10 nM | 1 to 10 nM | A (A = <25 fold selective for hTREX1)
4 | COCCn1ncc(C(c2cc(F)ccc2Cl)C(C)c2nc(C(=O)Nc3cnoc3)c(O)c(=O)n2C)c1C (single isomer, unassigned) [Example 108 D2E1] | 10 to 100 nM | > 10 nM | 1 to 10 nM | A (A = <25 fold selective for hTREX1)
5 | Cc1nn(C)c(C)c1C(c1cc(F)ccc1C#N)C(C)c1nc(C(=O)Nc2cnoc2)c(O)c(=O)n1C (single isomer, unassigned) [Example 109 D1E1] | 10 to 100 nM | 1 to 10 nM | < 1 nM | B (B = 25 to 50-fold selective for hTREX1)
6 | COCCn1nc(C)c(C(c2cc(F)ccc2C#N)C(C)c2nc(C(=O)Nc3cnoc3)c(O)c(=O)n2C)c1C (single isomer, unassigned) [Example 110 D1E1] | > 100 nM | 1 to 10 nM | < 1 nM | C (C = >50 fold selective for hTREX1)
7 | Cc1cc(C(c2cc(F)ccc2C#N)C(C)c2nc(C(=O)Nc3cnoc3)c(O)c(=O)n2C)n(C)n1 (single isomer, unassigned) [Example 111 D2E1] | > 100 nM | > 10 nM | < 1 nM | C (C = >50 fold selective for hTREX1)
8 | Cc1cc(C(c2cc(F)ccc2C#N)C(C)c2nc(C(=O)Nc3cnoc3)c(O)c(=O)n2C)nn1C (single isomer, unassigned) [Example 112 D1E1] | 10 to 100 nM | 1 to 10 nM | < 1 nM | C (C = >50 fold selective for hTREX1)
9 | Cc1cc(C(c2cc(F)ccc2C#N)C(C)c2nc(C(=O)Nc3cnoc3)c(O)c(=O)n2C)nn1C (single isomer, unassigned) [Example 112 D2E1] | > 100 nM | > 10 nM | 1 to 10 nM | A (A = <25 fold selective for hTREX1)
10 | Cc1cc(C(c2cc(F)ccc2Cl)C(C)c2nc(C(=O)Nc3cnoc3)c(O)c(=O)n2C)n(C)n1 (single isomer, unassigned) [Example 113 D1E1] | 10 to 100 nM | > 10 nM | > 10 nM | C (C = >50 fold selective for hTREX1)
11 | Cc1cnc(C(c2cc(F)ccc2C#N)C(C)c2nc(C(=O)Nc3cnoc3)c(O)c(=O)n2C)cn1 (single isomer, unassigned) [Example 115 D2E2] | > 100 nM | > 10 nM | 1 to 10 nM | C (C = >50 fold selective for hTREX1)
12 | Cc1cnc(C(c2ccccc2Cl)C(C)c2nc(C(=O)Nc3cnoc3)c(O)c(=O)n2C)cn1 (single isomer, unassigned) [Example 116 D1E1] | > 100 nM | > 10 nM | > 10 nM | A (A = <25 fold selective for hTREX1)
13 | Cc1cnc(C(c2ccccc2Cl)C(C)c2nc(C(=O)Nc3cnoc3)c(O)c(=O)n2C)cn1 (single isomer, unassigned) [Example 116 D1E2] | 10 to 100 nM | 1 to 10 nM | < 1 nM | B (B = 25 to 50-fold selective for hTREX1)
14 | Cc1cnc(C(c2ccccc2Cl)C(C)c2nc(C(=O)Nc3cnoc3)c(O)c(=O)n2C)cn1 (single isomer, unassigned) [Example 116 D2E1] | > 100 nM | > 10 nM | 1 to 10 nM | A (A = <25 fold selective for hTREX1)
15 | Cc1cnc(C(c2cc(F)ccc2Cl)C(C)c2nc(C(=O)Nc3cnoc3)c(O)c(=O)n2C)cn1 (single isomer, unassigned) [Example 117 D1E2] | < 10 nM | 1 to 10 nM | < 1 nM | A (A = <25 fold selective for hTREX1)
16 | Cc1cnc(C(c2cc(F)ccc2Cl)C(C)c2nc(C(=O)Nc3cnoc3)c(O)c(=O)n2C)cn1 (single isomer, unassigned) [Example 117 D2E1] | > 100 nM | > 10 nM | 1 to 10 nM | A (A = <25 fold selective for hTREX1)
17 | CC(c1nc(C(=O)Nc2cnoc2)c(O)c(=O)n1C)C(c1cnc(C(F)(F)F)cn1)c1ccccc1C#N (single isomer, unassigned) [Example 118 D1E1] | 10 to 100 nM | 1 to 10 nM | 1 to 10 nM | B (B = 25 to 50-fold selective for hTREX1)
18 | CC(c1nc(C(=O)Nc2cnoc2)c(O)c(=O)n1C)C(c1cnc(C(F)(F)F)cn1)c1ccccc1C#N (single isomer, unassigned) [Example 118 D2E1] | > 100 nM | > 10 nM | 1 to 10 nM | B (B = 25 to 50-fold selective for hTREX1)
19 | Cc1cnc(C)c(C(c2cc(F)ccc2C#N)C(C)c2nc(C(=O)Nc3cnoc3)c(O)c(=O)n2C)n1 (single isomer, unassigned) [Example 119 D1E2] | > 100 nM | > 10 nM | > 10 nM | B (B = 25 to 50-fold selective for hTREX1)
20 | Cc1cnc(C)c(C(c2cc(F)ccc2C#N)C(C)c2nc(C(=O)Nc3cnoc3)c(O)c(=O)n2C)n1 (single isomer, unassigned) [Example 119 D2E1] | > 100 nM | > 10 nM | 1 to 10 nM | C (C = >50 fold selective for hTREX1)
21 | Cc1cnc(C)c(C(c2cc(F)ccc2C#N)C(C)c2nc(C(=O)Nc3cnoc3)c(O)c(=O)n2C)n1 (single isomer, unassigned) [Example 119 D2E2] | > 100 nM | > 10 nM | > 10 nM | A (A = <25 fold selective for hTREX1)
22 | Cc1cnc(C)c(C(c2ccccc2Cl)C(C)c2nc(C(=O)Nc3cnoc3)c(O)c(=O)n2C)n1 (single isomer, unassigned) [Example 120 D1E1] | < 10 nM | 1 to 10 nM | < 1 nM | C (C = >50 fold selective for hTREX1)
23 | Cc1cnc(C)c(C(c2ccccc2Cl)C(C)c2nc(C(=O)Nc3cnoc3)c(O)c(=O)n2C)n1 (single isomer, unassigned) [Example 120 D2E2] | > 100 nM | > 10 nM | > 10 nM | C (C = >50 fold selective for hTREX1)
24 | Cc1cnc(C)c(C(c2cc(F)ccc2Cl)C(C)c2nc(C(=O)Nc3cnoc3)c(O)c(=O)n2C)n1 (single isomer, unassigned) [Example 121 D1E1] | < 10 nM | 1 to 10 nM | < 1 nM | C (C = >50 fold selective for hTREX1)

Reference: US20240246946A1, “MODULATORS OF TREX1” (Constellation Pharmaceuticals, Inc., priority 2021, published 2024)
